Experimental findings from US8530489B2 (Vertex Pharmaceuticals Incorporated, priority 2006, dated 2013) are described below.

The target of this assay is PLK1 (Homo sapiens, UniProt P53350). The assay is described as follows: PLK1 Inhibition Assay I (radioactive-phosphate incorporation). Format: biochemical. As to conditions: Ki(app); PLK1 Inhibition Assay I or II (table does not say which). The gist of the method: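 Ki(app) values came from non-linear regression of initial rates after background subtraction, with phosphopeptide measured by phosphocellulose filter binding and scintillation counting. PLK1 at 2 nM was preincubated with compound (typically from 10 μM, 2-fold dilutions) for 10 min, then run 240 min at 25° C with 350 μM [γ-33P]ATP and 450 μM peptide substrate in HEPES pH 7.5 buffer.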
Chain of PLK1 (P53350 whole entry): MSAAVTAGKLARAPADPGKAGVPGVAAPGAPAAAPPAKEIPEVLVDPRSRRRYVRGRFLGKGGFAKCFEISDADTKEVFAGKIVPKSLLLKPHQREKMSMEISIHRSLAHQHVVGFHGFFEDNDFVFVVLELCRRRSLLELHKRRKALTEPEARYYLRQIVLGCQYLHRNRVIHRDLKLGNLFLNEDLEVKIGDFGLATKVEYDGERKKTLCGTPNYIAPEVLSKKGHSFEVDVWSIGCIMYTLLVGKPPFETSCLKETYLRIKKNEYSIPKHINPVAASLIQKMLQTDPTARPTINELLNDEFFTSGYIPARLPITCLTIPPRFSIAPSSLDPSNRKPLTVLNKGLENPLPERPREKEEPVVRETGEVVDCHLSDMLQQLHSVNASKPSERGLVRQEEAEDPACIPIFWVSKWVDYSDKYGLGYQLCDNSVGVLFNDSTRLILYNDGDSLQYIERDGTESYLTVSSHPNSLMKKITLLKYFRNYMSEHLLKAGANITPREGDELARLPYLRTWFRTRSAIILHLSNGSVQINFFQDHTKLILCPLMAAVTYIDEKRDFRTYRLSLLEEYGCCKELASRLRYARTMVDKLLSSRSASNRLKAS

Consider `CC(C)(Nc1ncc(C#N)c(-c2c[nH]c3ncc(C(F)(F)F)cc23)n1)C(=O)NCC(F)(F)F` [IA-0, 2-(5-cyano-4-(5-(trifluoromethyl)-1H-pyrrolo[2,3-b]pyridin-3-yl)pyrimidin-2-ylamino)-2-methyl-N-(2,2,2-trifluoroethyl)propanamide], for which the Ki was in the range of 3 to 40 nM.
`CC(C)(Nc1ncc(C#N)c(-c2c[nH]c3ncc(C(F)(F)F)cc23)n1)C(=O)NCCC(F)(F)F` [IA-1, 2-(5-cyano-4-(5-(trifluoromethyl)-1H-pyrrolo[2,3-b]pyridin-3-yl)pyrimidin-2-ylamino)-2-methyl-N-(3,3,3-trifluoropropyl)propanamide]: the Ki is > 40 nM.
The value for `N#Cc1cnc(NC2(C(=O)NCC(F)(F)F)CCCCC2)nc1-c1c[nH]c2ncc(Cl)cc12` [IA-3, 1-(4-(5-chloro-1H-pyrrolo[2,3-b]pyridin-3-yl)-5-cyanopyrimidin-2-ylamino)-N-(2,2,2-trifluoroethyl)cyclohexanecarboxamide] was 3 to 40 nM; that for `CC(C)(Nc1ncc(C#N)c(-c2c[nH]c3ncc(Cl)cc23)n1)C(=O)NC1CCCC1` [IA-4, 2-(4-(5-chloro-1H-pyrrolo[2,3-b]pyridin-3-yl)-5-cyanopyrimidin-2-ylamino)-N-cyclopentyl-2-methylpropanamide] was 3 to 40 nM.
The value for `CC(C)(Nc1ncc(C#N)c(-c2c[nH]c3ncc(Cl)cc23)n1)C(=O)NC1CCCCC1` [IA-5, 2-(4-(5-chloro-1H-pyrrolo[2,3-b]pyridin-3-yl)-5-cyanopyrimidin-2-ylamino)-N-cyclohexyl-2-methylpropanamide] was 3 to 40 nM; that for `C[C@H](Nc1ncc(C#N)c(-c2c[nH]c3ncc(Cl)cc23)n1)C(=O)NCC(F)(F)F` [IA-6, (2S)-2-(4-(5-chloro-1H-pyrrolo{2,3-b]pyridin-3-yl)-5-cyanopyrimidin-2-ylamino)-N-(2,2,2-trifluoroethyl)propanamide] was > 40 nM.
The value for `N#Cc1cnc(NC2(C(=O)NCC(F)(F)F)CCCC2)nc1-c1c[nH]c2ncc(Cl)cc12` [IA-7, 1-(4-(5-chloro-1H-pyrrolo[2,3-b]pyridin-3-yl)-5-cyanopyrimidin-2-ylamino)-N-(2,2,2-trifluoroethyl)cyclopentanecarboxamide] was > 40 nM.
On to `CNC(=O)C(C)(C)Nc1ncc(C#N)c(-c2c[nH]c3ncc(Cl)cc23)n1` [IA-8, 2-(4-(5-chloro-1H-pyrrolo[2,3-b]pyridin-3-yl)-5-cyanopyrimidin-2-ylamino)-N,2-dimethylpropanamide], for which the Ki is > 40 nM.
In the case of `CC(C)(Nc1ncc(C#N)c(-c2c[nH]c3ncc(C(F)(F)F)cc23)n1)C(=O)O` [IA-9, 2-(5-cyano-4-(5-(trifluoromethyl)-1H-pyrrolo[2,3-b]pyridin-3-yl)pyrimidin-2-ylamino)-2-methylpropanoic acid], the Ki is > 40 nM.
The value for `CC(C)(Nc1ncc(C#N)c(-c2c[nH]c3ncccc23)n1)C(=O)NCC(F)(F)F` [IA-10, 2-(5-cyano-4-(1H-pyrrolo[2,3-b]pyridin-3-yl)pyrimidin-2-ylamino)-2-methyl-N-(2,2,2-trifluoroethyl)propanamide] was > 40 nM.
For `CC(C)(Nc1ncc(C#N)c(-c2c[nH]c3ncc(Cl)cc23)n1)C(=O)NCC(F)(F)F` [IA-11, 2-(4-(5-chloro-1H-pyrrolo[2,3-b]pyridin-3-yl)-5-cyanopyrimidin-2-ylamino)-2-methyl-N-(2,2,2-trifluoroethyl)propanamide], the Ki was 3 to 40 nM.
The value for `C[C@@H](Nc1ncc(C#N)c(-c2c[nH]c3ncc(C(F)(F)F)cc23)n1)C(=O)NCCO` [IA-12, (2R)-2-(5-cyano-4-(5-(trifluoromethyl)-1H-pyrrolo[2,3-b]pyridin-3-yl)pyrimidin-2-ylamino)-N-(2-hydroxyethyl)-propanamide] was 3 to 40 nM; that for `C[C@@H](Nc1ncc(C#N)c(-c2c[nH]c3ncc(C(F)(F)F)cc23)n1)C(=O)NC1CCCC1O` (stereo partly drawn) [IA-13, (2R)-2-(5-cyano-4-(5-(trifluoromethyl)-1H-pyrrolo[2,3-b]pyridin-3-yl)pyrimidin-2-ylamino)-N-(2-hydroxycyclopentyl)propanamide] was 3 to 40 nM.
The value for `CC(C)(Nc1ncc(C#N)c(-c2c[nH]c3ncc(C(F)(F)F)cc23)n1)C(=O)NCCO` [IA-14, 2-(5-cyano-4-(5-(trifluoromethyl)-1H-pyrrolo[2,3-b]pyridin-3-yl)pyrimidin-2-ylamino)-N-(2-hydroxyethyl)-2-methylpropanamide] was > 40 nM.
Take `N#Cc1cnc(Sc2ccccc2)nc1-c1c[nH]c2ncc(C(F)(F)F)cc12` [II-0, 2-(phenylthio)-4-(5-(trifluoromethyl)-1H-pyrrolo[2,3-b]pyridin-3-yl)pyrimidine-5-carbonitrile]: the Ki was 3 to 40 nM.
For `CSc1ncc(C#N)c(-c2c[nH]c3ncc(C(F)(F)F)cc23)n1` [II-1, 2-(methylthio)-4-(5-(trifluoromethyl)-1H-pyrrolo[2,3-b]pyridin-3-yl)pyrimidine-5-carbonitrile] the value was > 40 nM.
For `N#Cc1cnc(Sc2ccc(Cl)cc2)nc1-c1c[nH]c2ncc(C(F)(F)F)cc12` [II-2, 2-(4-chlorophenylthio)-4-(5-(trifluoromethyl)-1H-pyrrolo[2,3-b]pyridin-3-yl)pyrimidine-5-carbonitrile] the value was > 40 nM; for `COc1ccc(Sc2ncc(C#N)c(-c3c[nH]c4ncc(C(F)(F)F)cc34)n2)cc1` [II-3, 2-(4-methoxyphenylthio)-4-(5-(trifluoromethyl)-1H-pyrrolo[2,3-b]pyridin-3-yl)pyrimidine-5-carbonitrile], > 40 nM.
As to `N#Cc1cnc(Sc2cccc(Br)c2)nc1-c1c[nH]c2ncc(C(F)(F)F)cc12` [II-4, 2-(3-bromophenylthio)-4-(5-(trifluoromethyl)-1H-pyrrolo[2,3-b]pyridin-3-yl)pyrimidine-5-carbonitrile], the Ki was > 40 nM.
The value for `N#Cc1cnc(Sc2ccccc2Cl)nc1-c1c[nH]c2ncc(C(F)(F)F)cc12` [II-5, 2-(2-chlorophenylthio)-4-(5-(trifluoromethyl)-1H-pyrrolo[2,3-b]pyridin-3-yl)pyrimidine-5-carbonitrile] was > 40 nM; that for `N#Cc1cnc(Sc2cccc(Cl)c2)nc1-c1c[nH]c2ncc(C(F)(F)F)cc12` [II-6, 2-(3-chlorophenylthio)-4-(5-(trifluoromethyl)-1H-pyrrolo[2,3-b]pyridin-3-yl)pyrimidine-5-carbonitrile] was > 40 nM.
For `N#Cc1cnc(Sc2ccccc2Br)nc1-c1c[nH]c2ncc(C(F)(F)F)cc12` [II-7, 2-(2-bromophenylthio)-4-(5-(trifluoromethyl)-1H-pyrrolo[2,3-b]pyridin-3-yl)pyrimidine-5-carbonitrile] the value was > 40 nM; for `N#Cc1cnc(Sc2ccc(Br)cc2)nc1-c1c[nH]c2ncc(C(F)(F)F)cc12` [II-8, 2-(4-bromophenylthio)-4-(5-(trifluoromethyl)-1H-pyrrolo[2,3-b]pyridin-3-yl)pyrimidine-5-carbonitrile], > 40 nM; for `CCOc1cccc(Sc2ncc(C#N)c(-c3c[nH]c4ncc(C(F)(F)F)cc34)n2)c1` [II-9, 2-(3-ethoxyphenylthio)-4-(5-(trifluoromethyl)-1H-pyrrolo[2,3-b]pyridin-3-yl)pyrimidine-5-carbonitrile], > 40 nM.
For `N#Cc1cnc(SCCc2ccccc2)nc1-c1c[nH]c2ncc(C(F)(F)F)cc12` [II-10, 2-(phenethylthio)-4-(5-(trifluoromethyl)-1H-pyrrolo[2,3-b]pyridin-3-yl)pyrimidine-5-carbonitrile], the Ki was > 40 nM.
For the molecule `COc1cccc(Sc2ncc(C#N)c(-c3c[nH]c4ncc(C(F)(F)F)cc34)n2)c1` [II-11, 2-(3-methoxyphenylthio)-4-(5-(trifluoromethyl)-1H-pyrrolo[2,3-b]pyridin-3-yl)pyrimidine-5-carbonitrile], the Ki was > 40 nM.
Regarding `CC(C)Sc1ncc(C#N)c(-c2c[nH]c3ncc(C(F)(F)F)cc23)n1` [II-12, 2-(isopropylthio)-4-(5-(trifluoromethyl)-1H-pyrrolo[2,3-b]pyridin-3-yl)pyrimidine-5-carbonitrile], the Ki was > 40 nM.
The value for `N#Cc1cnc(SC2CCCCC2)nc1-c1c[nH]c2ncc(C(F)(F)F)cc12` [II-13, 2-(cyclohexylthio)-4-(5-(trifluoromethyl)-1H-pyrrolo[2,3-b]pyridin-3-yl)pyrimidine-5-carbonitrile] was > 40 nM.
For `COc1ccccc1Sc1ncc(C#N)c(-c2c[nH]c3ncc(C(F)(F)F)cc23)n1` [II-14, 2-(2-methoxyphenylthio)-4-(5-(trifluoromethyl)-1H-pyrrolo[2,3-b]pyridin-3-yl)pyrimidine-5-carbonitrile] the value was > 40 nM; for `CCCC(CCO)Sc1ncc(C#N)c(-c2c[nH]c3ncc(C(F)(F)F)cc23)n1` (stereo not shown) [II-15, 2-(1-hydroxyhexan-3-ylthio)-4-(5-(trifluoromethyl)-1H-pyrrolo[2,3-b]pyridin-3-yl)pyrimidine-5-carbonitrile], > 40 nM.
For `CCCC(C)Sc1ncc(C#N)c(-c2c[nH]c3ncc(C(F)(F)F)cc23)n1` (stereo not shown) [II-16, 2-(pentan-2-ylthio)-4-(5-(trifluoromethyl)-1H-pyrrolo[2,3-b]pyridin-3-yl)pyrimidine-5-carbonitrile] the value was > 40 nM.
